Patent US20240011034A1, “INHIBITION OF miR-29b-3p TO ENHANCE NEURONAL SURVIVAL IN HUNTINGTON'S DISEASE” (Washington University, priority 2022, published 2024)

Tests used:
p62/SQSTM1 = p62/SQSTM1 immunostaining and immunoblot; format: cell-based, human; settings: 0.5 μM vs DMSO, PID26
Experimental: (§1) Reprogrammed cells were fixed with 4% paraformaldehyde (Electron Microscopy Sciences, #15710) for 20 min at room temperature (RT), and permeabilized with 0.2% Triton X-100 for 10 min at RT. Cells were blocked with 5% BSA and 1% goat serum in PBS and incubated with primary antibodies at 4° C. overnight, then incubated with secondary antibodies for 1 hr at RT. Cells were incubated with DAPI (Sigma, D-9542) for 5 minutes followed by washing with PBS. Images were captured using a Leica SP5X white light laser confocal system with Leica Application Suite (LAS) Advanced Fluorescence 2.7.3.9723.
Cells were lysed in 2% SDS buffer. The concentrations of whole-cell lysates were measured using the Pierce BCA protein assay kit (Thermo Scientific, #23227). […]
First, tandem monomeric mCherry-GFP-tagged LC3, previously shown to distinguish prefusion autophagic compartments from mature acidic autolysosomes based on the differential pH sensitivity of GFP versus mCherry, was used. […] CYTO-ID assay, a fluorescence-based live-cell assay for accumulated autophagic vacuoles, and immunostaining of p62/SQSTM1, a marker widely used to monitor autophagic activity due to its binding to LC3 and degradation during autophagy, were further performed. […]

reprogrammed MSNs [1] = assay: Apoptosis assay in live cells (Caspase-3/7, Annexin V); format: cell-based, human; settings: HD-MSNs, vs DMSO
Experimental: Reprogrammed cells grown in 96-well plates were treated with 1× Essen Bioscience IncuCyte® Caspase-3/7 Green Reagent (final concentration 5 μM) and 1× Essen Bioscience IncuCyte® Annexin V Green or Red Reagent on day 22 or 26. Image scheduling, collection, and analysis were conducted with the IncuCyte® S3 LiveCell Analysis System platform and IncuCyte S3 v2017A software. Treated plates were imaged every two hours for 7 days. At each timepoint, over 2 images were taken per well in brightfield, FITC, and TRITC channels. Images were analyzed for the number of green or red objects per well. For the apoptotic index, the number of green or red objects (i.n., fluorescence cells) divided by phase area (μm2) per well was quantified by the IncuCyte® S3 Live-Cell Analysis System.

reprogrammed MSNs [2] = assay: SYTOX assay (neuronal cell death); format: cell-based, human; settings: for SYTOX-positive cells (beneficial effect): 0.5 μM vs DMSO
Experimental: 0.1 μM SYTOX gene nucleic acid stain (Invitrogen, S7020) and 1 μl/mL of Hoechst 33342 (Thermo Scientific, 66249) were added into cell medium. Samples were incubated for at least 30 mins at 37° C. prior to live-cell imaging. Images were taken using Leica DMI 4000B inverted microscope with Leica Application Suite (LAS) Advanced Fluorescence.

reprogrammed MSNs [3] = assay: tandem mCherry-GFP-LC3 reporter puncta quantification; format: cell-based, human; settings: HD-MSNs, 0.5 μM vs DMSO
Experimental: FUW mCherry-GFP-LC3 used was Addgene plasm id # 110060; http://n2t.net/addgene:110060; RRID:Addgene_110060. The concentrated lentivirus of mCherry-GFP-LC3 was added to reprogrammed MSNs at PID20. For imaging of cells expressing mCherry-GFP-LC3, cells were washed once with PBS, fixed and stained by TUBB3 antibody, after verification of expression of GFP and mCherry by microscopy at PID26. Images were captured using a Leica SP5X white light laser confocal system with Leica Application Suite (LAS) Advanced Fluorescence 2.7.3.9723. For quantification of autophagosome (i.e., mCherry+, GFP+ puncta) and autolysosome (i.e., mCherry+, GFP− puncta) compartments in MSNs from multiple HD patients and control individuals, measurements were performed in cells having at least 3 puncta per cell.

HTT inclusion bodies = HTT inclusion bodies / mHTT aggregation by immunostaining; format: cell-based, human; settings: HD-MSNs, 0.5 μM vs DMSO, PID30
Experimental: as §1

[4] = tested on: α1-antitrypsin Z variant (ATZ); assay: Immunoblot of steady-state ATZ in HTO/Z cell line model of α1-antitrypsin deficiency; format: cell-based; settings: 24 hr, 0.5 and 2.5 μM vs DMSO (0.5 μM: p=0.003)
Experimental: FIG. 7A-7H show autophagy activator rescues HD-MSNs from degeneration. […] The normalized intensity (bottom) was calculated from immunoblot images for 0.5 μM versus DMSO control (Individual data plotted, n=4; *p=0.003 by t-test; Mean±s.e.m.). FIG. 7C show representative images of p62 and TUBB3-positive cells (top) and quantification of p62 intensity per cell (bottom) at PID26 from multiple healthy control old and HD-MSNs treated with DMSO or 0.5 μM G2-115. Each dot represents one individual's reprogrammed MSN. Scale bars is 20 μm FIG. 7D show representative images of CYTO-ID staining (top) and quantification of CYTO-ID green signals (bottom) at PID26 from multiple healthy control old and HD-MSNs treated with DMSO or 0.5 μM G2-115. Each dot represents one individual's reprogrammed MSN. Scale bar is 20 μm FIG. 7E show representative images (top) and quantification (bottom) of SYTOX-positive cells as a fraction of Hoechst-positive cells in HD-MSN treated with DMSO or different concentration of G2-115 (0.125, 0.25, or 0.5 μM) (n=4). Scale bar is 20 μm. FIG. 7F show quantification of SYTOX-positive cells from multiple healthy control old and HD-MSNs treated with DMSO or 0.5 μM G2-115. […] FIG. 7G show Representative images (left) and quantification (right) of caspase3/7 activation (green) and Annexin V signal (green) from three independent HD-MSN lines treated with DMSO or 0.5 μM G2-115. […]

reprogrammed MSNs [5] = assay: CYTO-ID assay for accumulated autophagic vacuoles; format: cell-based, human; settings: 0.5 μM vs DMSO, PID26
Text: First, tandem monomeric mCherry-GFP-tagged LC3, previously shown to distinguish prefusion autophagic compartments from mature acidic autolysosomes based on the differential pH sensitivity of GFP versus mCherry, was used. […] CYTO-ID assay, a fluorescence-based live-cell assay for accumulated autophagic vacuoles, and immunostaining of p62/SQSTM1, a marker widely used to monitor autophagic activity due to its binding to LC3 and degradation during autophagy, were further performed. […] The difference in p62 between pre-HD-MSNs and HD-MSNs was also validated by immunoblot assay (FIG. 3I). Because caspase activation has been detected in HD, and cell death-related pathways (apoptosis and caspase) were enriched in the brown module, the levels of caspase activation between pre-HD-MSN and HD-MSNs were compared.

## O=c1ccc2c(Cl)cc(Cl)cc2[nH]1 [G2-115, 5,7-dichloro-1H-quinolin-2-one]
p62/SQSTM1; HD-MSNs
  p62/SQSTM1 signal: decreased
p62/SQSTM1; old Ctrl-MSNs
  p62/SQSTM1 signal: decreased
Reprogrammed MSNs [1]
  Annexin V signal: reduced
  Caspase 3/7 signal: reduced
Reprogrammed MSNs [2]; HD-MSN, 0.125, 0.25 or 0.5 μM vs DMSO, treated from PID14 every four days for 16 days
  HD-MSN survival (reduction of SYTOX signal): promoted HD-MSN survival in a dose-dependent manner
Reprogrammed MSNs [2]; HD-MSNs from six independent patients
  SYTOX-positive cells (beneficial effect): consistent in HD-MSNs from six independent patients
Reprogrammed MSNs [2]; age-matched (old) Ctrl-MSNs versus HD-MSNs
  SYTOX-positive cells (beneficial effect): specific to HD-MSNs
Reprogrammed MSNs [3]
  average number of autolysosomes: increased
  average number of autophagosomes: increased
HTT inclusion bodies
  number of HTT inclusion bodies: reduced
[4]
  steady-state levels of ATZ: decreased
Reprogrammed MSNs [5]; HD-MSNs
  number of autophagic vacuoles (CYTO-ID signals): increased
Reprogrammed MSNs [5]; old Ctrl-MSNs
  number of autophagic vacuoles (CYTO-ID signals): increased
